Measured values taken from patent US10245257B2, “Anti-infective methods, compositions, and devices” (Dow Pharmaceutical Sciences, Inc., priority 2013, dated 2019).
Read-outs that look alike come from different tables or passages of the source.

Legend:
[1] = tested on: T. mentagrophytes, T. rubrum and C. albicans; assay: Drug resistance development in vitro by serial passage of fungal cultures; assay type: cell-based; details: serial passage in the presence of sub-growth inhibitory concentrations
From the text: Efinaconazole drug resistance development was studied in vitro against T. mentagrophytes, T. rubrum and C. albicans. […] The clinical significance of these in vitro results is unknown.

bacterial = assay: Bacterial reverse mutation assay; assay type: cell-based
[2] = mouse, in vivo
CHL cell = assay type: cell-based
[3] = set-up: species or system rats; details: rat, in vivo, sc
[4] = Pharmacokinetic study in healthy volunteers, topical application to all 10 toenails; assay type: in vivo, human; details: for Cmax: mean +/- SD; for AUC(0-t): read-out: AUC24h
Procedure: In […] patients, efinaconazole 10% solution (IDP-108) was applied topically to all 10 toenails (0.42 mL total daily dose volume) administered as single and then 7 daily doses to 10 healthy volunteers, and once daily for 28 days to 18 severe onychomycosis patients. The efinaconazole 10% solution (0.42 mL/subject) was applied topically in the morning, unoccluded (i.e., without occluding, blocking or covering the nail with, for example, adhesive tape, bandage, dressing, sealant, etc.), by a trained nurse or study technician to all 10 toenails as a single dose (day 1), and seven consecutive daily doses (day 4 through day 10). A volume of 90 μL was applied on each great toenail and 30 μL on each of the remaining 8 toenails. There were no study drug applications on days 2 and 3.
Blood samples were collected at pre-dose, and 1, 2, 4, 6, 8, 10, 12, 16, 24, 28, 32, 36, 48, and 72 hours after dosing on days 1 and 10; and at pre-dose on days 6 and 8. Blood was processed to plasma and stored frozen until analysis.
(§1) Plasma concentrations of efinaconazole and its major metabolite H3 were determined by LC-MS-MS at multiple timepoints. Plasma concentrations of efinaconazole and H3 were determined using a validated LC-MS-MS method. […] The concentration of efinaconazole in plasma was determined at multiple time points over the course of 24-hour periods on days 1, 14, and 28. Plasma concentrations below the lower limit were set to zero for PK analyses. Pharmacokinetic parameters were calculated from individual plasma concentrations, whenever possible, using noncompartmental analysis in WinNonlin (Pharsight, Sunnyvale, Calif., USA), and included Cmax (observed peak drug concentration), Tmax (time at which Cmax occurs), Cmin (observed minimum drug concentration), t1/2 (apparent half-life), and AUC (area under the concentration-time curve).

[5] = Pharmacokinetic study in severe onychomycosis patients, once daily for 28 days; assay type: in vivo, human; details: for AUC(0-t): read-out: AUC24h; for Cmax: mean +/- SD
Procedure: Systemic absorption of efinaconazole in 18 […] patients with severe onychomycosis was determined after application of IDP-108 (10% efinaconazole) once daily for 28 days to patients' 10 toenails and adjacent skin. Specifically, two single-center, open-label studies in healthy volunteers and severe onychomycosis patients.
A separate single-center, open-label study to evaluate safety and PK of efinaconazole and its H3 metabolite in 20 patients with severe toenail onychomycosis also was conducted. The study enrolled men and women 18-70 years of age who had clinical diagnoses of stable or exacerbating severe DLSO affecting ≥80% of the area of both great toenails. The great toenails had evidence of toenail growth, and at least four toenails other than the great toenails were also affected by onychomycosis. A positive microscopic examination with potassium hydroxide (KOH) for the hyphae associated with dermatophytes was obtained for at least one great toenail at the screening visit.
Efinaconazole 10% solution (0.42 mL/subject) was applied topically, unoccluded, once daily in the morning for 28 days to all 10 toenails by a trained nurse or study technician, including to the toenail folds, toenail bed, hyponychium, and approximately 0.5 cm of skin around the toenail in all directions to ensure they were completely covered.
Blood samples were collected at predose and at 1, 2, 4, 6, 8, 10, 12, 16, and 24 hours postdose on days 1, 14, and 28. Blood was processed to plasma and stored frozen until analysis.
as §1

CYP2C9 = CYP2C9 (Homo sapiens, UniProt P11712); assay: biochemical; assay type: in vitro ADME
From the text: The 2006 Food and Drug Administration Drug Interaction Studies—Study Design, Data Analysis, and Implications for Dosing and Labeling draft guidance recommends clinical evaluation for drugs that are CYP inhibitors if the mean steady state Cmax/Ki is greater than 0.1.

Chain of CYP2C9 (P11712 whole entry): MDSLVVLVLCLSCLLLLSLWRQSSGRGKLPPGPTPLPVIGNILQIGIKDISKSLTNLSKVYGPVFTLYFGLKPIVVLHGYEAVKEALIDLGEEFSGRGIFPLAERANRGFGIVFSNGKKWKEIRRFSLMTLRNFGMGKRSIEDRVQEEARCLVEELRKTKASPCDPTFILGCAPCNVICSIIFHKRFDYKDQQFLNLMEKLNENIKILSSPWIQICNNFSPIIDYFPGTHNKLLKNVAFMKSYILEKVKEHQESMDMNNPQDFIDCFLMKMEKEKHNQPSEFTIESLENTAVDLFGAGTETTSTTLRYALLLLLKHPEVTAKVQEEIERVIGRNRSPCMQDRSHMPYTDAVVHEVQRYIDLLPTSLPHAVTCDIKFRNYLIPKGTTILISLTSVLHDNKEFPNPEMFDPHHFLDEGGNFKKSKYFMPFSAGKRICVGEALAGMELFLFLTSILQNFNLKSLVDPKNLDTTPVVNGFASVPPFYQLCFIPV

Which “increase of the MIC” value [1] does the source give for `C=C1CCN([C@H](C)[C@](O)(Cn2cncn2)c2ccc(F)cc2F)CC1` [efinaconazole, (2R,3R)-2-(2,4-difluorophenyl)-3-(4-methylenepiperidin-1-yl)-1-(1H-1,2,4-triazol-1-yl) butan-2-ol] here?
Its value is “up to 4 fold”.

What about the mutagenicity (bacterial) of the same molecule?
The mutagenicity was “not mutagenic”.

And the clastogenicity [2]?
The clastogenicity was “not clastogenic”.

And the clastogenicity (CHL cell)?
The clastogenicity was “not clastogenic”.

What about the “effect on estrous cycle in females” value ([3]; 5 mg/kg/day) of the same molecule?
Its value is “did not have effects”.

What about the “effect on estrous cycle in females” value ([3]; 25 mg/kg/day) of the same molecule?
The value was “delayed the estrous cycle”.

What about the “steady-state reached on Day” value ([4]; fifth topical application, both toenails and back skin) of the same molecule?
The value was 8 days.

What about the “Systemic exposure (AUC24h) on day 10 relative to day 1” value ([4]; healthy volunteers) of the same molecule?
Its value is “approximately 3.6 fold”.

And the Cmax ([4]; healthy volunteers, Day 1 (single dose), plasma)?
The Cmax was 0.38 ± 0.39 ng/mL.

What about the Cmax ([4]; healthy volunteers, Day 10 (7th daily dose), plasma) of the same molecule?
Its Cmax is 0.54 ± 0.22 ng/mL.

What about the Cmin ([4]; healthy volunteers, Day 10, mean +/- SD) of the same molecule?
The Cmin was 0.47 ± 0.18 ng/mL.

What about the average plasma concentration ([4]; healthy volunteers, stated after the day 10 range) of the same molecule?
The average plasma concentration was 0.37 ng/mL.

And the Cmax ([4]; human, plasma, topical, 0.42 mL/subject, healthy volunteers, Day 1 (single dose), plasma, read-out: Cmax)?
Its Cmax is 0.382 ng/mL.

And the AUC(0-t) ([4]; human, plasma, topical, 0.42 mL/subject, healthy volunteers, Day 1, mean +/- SD)?
The AUC(0-t) was 2.64 ± 2.85 ng·h/mL.

And the Tmax ([4]; human, plasma, topical, 0.42 mL/subject, healthy volunteers, Day 1, value [range])?
Its Tmax is 24 h.

What about the Cmax ([4]; human, plasma, topical, 0.42 mL/subject, healthy volunteers, Day 10 (7th daily dose), plasma, read-out: Cmax) of the same molecule?
The Cmax was 0.542 ng/mL.

What about the AUC(0-t) ([4]; human, plasma, topical, 0.42 mL/subject, healthy volunteers, Day 10, mean +/- SD) of the same molecule?
The AUC(0-t) was 9.48 ± 3.86 ng·h/mL.

What about the Tmax ([4]; human, plasma, topical, 0.42 mL/subject, healthy volunteers, Day 10, value [range]) of the same molecule?
The Tmax was 10 h.

What about the concentration at 1 day ([4]; human, plasma, topical, 0.42 mL/subject, healthy volunteers, day 1, read-out: plasma concentration range) of the same molecule?
The concentration at 1 day was 0 to 1.11 ng/mL.

What about the concentration at 10 day ([4]; human, plasma, topical, 0.42 mL/subject, healthy volunteers, day 10, read-out: plasma concentration range) of the same molecule?
Its concentration at 10 day is 0.25 to 0.85 ng/mL.

And the “tolerability, drug-related adverse events” value ([5]; both PK studies (healthy volunteers and onychomycosis patients))?
Its value is “well tolerated”.

What about the Tmax ([5]; both sexes, human, plasma, topical, 0.42 mL/subject, onychomycosis patients, Day 1) of the same molecule?
The Tmax was 23.9 h.

And the AUC(0-t) ([5]; both sexes, human, plasma, topical, 0.42 mL/subject, onychomycosis patients, Day 1, mean +/- SD)?
Its AUC(0-t) is 1.79 ng·h/mL.

What about the Cmax ([5]; both sexes, human, plasma, topical, 0.42 mL/subject, onychomycosis patients, Day 1, plasma) of the same molecule?
The Cmax was 0.23 ± 0.18 ng/mL.

And the Tmax ([5]; both sexes, human, plasma, topical, 0.42 mL/subject, onychomycosis patients, Day 14)?
Its Tmax is 4.55 h.

And the AUC(0-t) ([5]; both sexes, human, plasma, topical, 0.42 mL/subject, onychomycosis patients, Day 14, mean +/- SD)?
The AUC(0-t) was 10.9 ± 5.9 ng·h/mL.

What about the Cmax ([5]; both sexes, human, plasma, topical, 0.42 mL/subject, onychomycosis patients, Day 14, plasma) of the same molecule?
The Cmax was 0.62 ± 0.23 ng/mL.

What about the Tmax ([5]; both sexes, human, plasma, topical, 0.42 mL/subject, onychomycosis patients, Day 28) of the same molecule?
The Tmax was 16 h.

And the AUC(0-t) ([5]; both sexes, human, plasma, topical, 0.42 mL/subject, onychomycosis patients, Day 28, mean +/- SD)?
Its AUC(0-t) is 12.2 ng·h/mL.

What about the Cmax ([5]; both sexes, human, plasma, topical, 0.42 mL/subject, onychomycosis patients, Day 28, plasma) of the same molecule?
The Cmax was 0.67 ng/mL.

What about the concentration at 2 weeks after the last dose ([5]; both sexes, human, plasma, topical, 0.42 mL/subject, onychomycosis patients, detected in several subjects, read-out: mean plasma concentrations two weeks after the last dose) of the same molecule?
The concentration at 2 weeks after the last dose was 0.07 ng/mL.

And the Cmin ([5]; onychomycosis patients, Day 14, mean +/- SD)?
Its Cmin is 0.33 ± 0.17 ng/mL.

And the Cmin ([5]; onychomycosis patients, Day 28, mean +/- SD)?
Its Cmin is 0.36 ± 0.20 ng/mL.

What about the Ki (CYP2C9) of the same molecule?
Its Ki is 261 nM.

What about the “steady state Cmax/Ki” value (CYP2C9) of the same molecule?
The value was 0.007.
